ChEMBL document CHEMBL3390832 (Medchemcomm, 2011)

Tests used:
Glutamate NMDA receptor = assay: Displacement of [3H]CGP-39653 from NMDA receptor in rat brain cortical membranes; format: cell membranes
[1] = biological target: T1, Metabotropic glutamate receptor 7 (Homo sapiens, UniProt Q14831); assay: Binding affinity to human mGluR7 receptor expressed in HEK cells; format: cell-based, HEK293
[2] = biological target: T2, Metabotropic glutamate receptor 3 (Homo sapiens, UniProt Q14832); assay: Binding affinity to human mGluR3 receptor expressed in HEK cells; format: cell-based, HEK293
[3] = biological target: T2, Metabotropic glutamate receptor 3; assay: Agonist activity at human mGluR3 receptor expressed in HEK cells; format: cell-based, HEK293
[4] = biological target: T1, Metabotropic glutamate receptor 7; assay: Agonist activity at human mGluR7 receptor expressed in HEK cells; format: cell-based, HEK293
[5] = biological target: T3, G-protein coupled receptor family C group 6 member A (Mus musculus, UniProt Q8K4Z6); assay: Agonist activity at mouse GPRC6A expressed in human tsA201 cells coexpressing GalphaqG66D after 30 mins by inositol phosphate turnover assay; format: functional, cell-based
T3 sequence (Q8K4Z6 whole entry): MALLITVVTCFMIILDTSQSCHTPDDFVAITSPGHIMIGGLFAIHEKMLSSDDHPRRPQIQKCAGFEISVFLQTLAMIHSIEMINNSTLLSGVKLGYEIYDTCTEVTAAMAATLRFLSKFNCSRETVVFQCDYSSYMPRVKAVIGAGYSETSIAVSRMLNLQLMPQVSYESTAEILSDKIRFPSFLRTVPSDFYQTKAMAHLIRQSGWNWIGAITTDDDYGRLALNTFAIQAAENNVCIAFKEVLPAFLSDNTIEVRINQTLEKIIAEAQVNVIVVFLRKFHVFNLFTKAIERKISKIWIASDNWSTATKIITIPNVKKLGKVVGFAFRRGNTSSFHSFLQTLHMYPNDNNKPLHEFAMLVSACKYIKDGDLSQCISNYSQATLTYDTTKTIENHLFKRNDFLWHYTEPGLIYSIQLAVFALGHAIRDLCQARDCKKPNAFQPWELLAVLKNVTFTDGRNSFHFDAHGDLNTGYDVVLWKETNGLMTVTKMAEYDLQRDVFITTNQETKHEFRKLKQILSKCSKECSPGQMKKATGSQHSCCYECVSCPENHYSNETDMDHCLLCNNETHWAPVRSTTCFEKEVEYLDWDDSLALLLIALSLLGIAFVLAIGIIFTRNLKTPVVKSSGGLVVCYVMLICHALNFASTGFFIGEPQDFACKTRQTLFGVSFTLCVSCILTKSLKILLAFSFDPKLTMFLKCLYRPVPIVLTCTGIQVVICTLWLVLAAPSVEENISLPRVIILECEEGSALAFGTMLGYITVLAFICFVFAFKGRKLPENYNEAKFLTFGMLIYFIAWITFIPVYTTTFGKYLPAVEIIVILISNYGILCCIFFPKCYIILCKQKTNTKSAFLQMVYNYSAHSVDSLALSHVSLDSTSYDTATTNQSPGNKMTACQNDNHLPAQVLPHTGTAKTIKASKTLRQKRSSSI

T2 sequence (Q14832 whole entry): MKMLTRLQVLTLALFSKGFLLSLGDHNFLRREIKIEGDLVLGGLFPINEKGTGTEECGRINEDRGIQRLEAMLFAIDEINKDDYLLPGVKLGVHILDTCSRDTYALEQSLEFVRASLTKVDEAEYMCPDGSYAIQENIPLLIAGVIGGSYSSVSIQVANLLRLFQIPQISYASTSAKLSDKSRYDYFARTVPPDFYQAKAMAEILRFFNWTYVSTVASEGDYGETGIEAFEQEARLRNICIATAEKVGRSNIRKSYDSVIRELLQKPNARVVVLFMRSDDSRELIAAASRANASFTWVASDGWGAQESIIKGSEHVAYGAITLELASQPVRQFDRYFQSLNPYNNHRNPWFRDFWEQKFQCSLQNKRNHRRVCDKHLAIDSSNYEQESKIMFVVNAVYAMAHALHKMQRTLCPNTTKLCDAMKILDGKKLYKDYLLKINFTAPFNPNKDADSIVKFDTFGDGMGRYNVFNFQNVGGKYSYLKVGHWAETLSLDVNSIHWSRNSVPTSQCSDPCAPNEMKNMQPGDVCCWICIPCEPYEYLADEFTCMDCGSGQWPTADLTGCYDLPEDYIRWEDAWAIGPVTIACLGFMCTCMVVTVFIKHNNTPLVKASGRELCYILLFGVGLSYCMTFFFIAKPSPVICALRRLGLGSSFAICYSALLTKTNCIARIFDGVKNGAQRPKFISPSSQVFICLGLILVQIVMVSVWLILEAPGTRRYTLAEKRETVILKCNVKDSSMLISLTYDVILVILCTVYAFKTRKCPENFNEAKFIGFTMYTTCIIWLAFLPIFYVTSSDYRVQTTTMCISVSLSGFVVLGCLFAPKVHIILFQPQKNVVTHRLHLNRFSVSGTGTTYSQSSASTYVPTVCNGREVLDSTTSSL
T1 sequence (Q14831 whole entry): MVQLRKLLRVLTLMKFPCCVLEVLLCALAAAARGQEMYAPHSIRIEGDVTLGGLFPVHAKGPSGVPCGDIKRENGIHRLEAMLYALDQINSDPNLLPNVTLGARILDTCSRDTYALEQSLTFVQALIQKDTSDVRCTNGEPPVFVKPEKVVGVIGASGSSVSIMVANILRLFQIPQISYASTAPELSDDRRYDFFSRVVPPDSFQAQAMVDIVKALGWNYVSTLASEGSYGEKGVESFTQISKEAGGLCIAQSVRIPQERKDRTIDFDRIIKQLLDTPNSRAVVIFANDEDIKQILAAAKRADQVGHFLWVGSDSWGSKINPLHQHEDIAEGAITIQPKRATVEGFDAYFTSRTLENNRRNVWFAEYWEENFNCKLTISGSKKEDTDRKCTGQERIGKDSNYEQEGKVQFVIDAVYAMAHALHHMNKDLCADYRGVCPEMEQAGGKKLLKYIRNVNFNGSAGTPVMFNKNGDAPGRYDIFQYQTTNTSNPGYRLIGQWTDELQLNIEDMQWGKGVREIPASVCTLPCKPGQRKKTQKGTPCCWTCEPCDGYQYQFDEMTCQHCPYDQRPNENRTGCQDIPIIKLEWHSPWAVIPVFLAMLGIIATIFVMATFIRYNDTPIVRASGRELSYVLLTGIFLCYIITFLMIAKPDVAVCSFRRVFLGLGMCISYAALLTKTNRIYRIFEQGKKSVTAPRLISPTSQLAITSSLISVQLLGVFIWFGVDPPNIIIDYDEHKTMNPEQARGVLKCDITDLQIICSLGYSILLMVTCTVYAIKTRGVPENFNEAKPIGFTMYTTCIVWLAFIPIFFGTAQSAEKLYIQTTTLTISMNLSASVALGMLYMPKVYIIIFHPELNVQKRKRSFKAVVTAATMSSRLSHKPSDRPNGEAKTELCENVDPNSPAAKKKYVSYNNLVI

SMILES | Ki (Glutamate NMDA receptor) | EC50 [3] | also measured
N[C@@H](CCc1nsnc1O)C(=O)O | > 100 µM | – | –
N[C@@]1(C(=O)O)C[C@H]1CC(=O)O (relative stereo) | 72 µM | > 1000 µM | –
N[C@@]1(C(=O)O)C[C@@H]1CC(=O)O (relative stereo) | 77 µM | 200 µM | Ki [2]: 200 µM
N=C(N)NCCC[C@H](N)C(=O)O [ARGININE] | – | – | EC50 [5]: 284 µM

Further lines, with some results ahead:

Ki (Glutamate NMDA receptor) | EC50 [3] | SMILES | also measured
> 100 µM | – | N[C@H](CCc1nsnc1O)C(=O)O | –
– | 0.06 µM | N[C@@H](CCC(=O)O)C(=O)O [GLUTAMIC ACID] | Ki [1]: 1170 µM; Ki [2]: 0.0575 µM; EC50 [4]: 1180 µM
19 µM | – | N[C@]1(C(=O)O)C[C@H]1Cc1nsnc1O (relative stereo) | –
